Assay results: the supplement of paper PMC11061612

How the values were obtained:
Experiment in all cases: combination Emax (second highest fraction inhibited in the dose matrix, 72 h); higher = more inhibition; extreme values may be limits of the assay
[1] = system: COLO-205 (Colorectal Carcinoma)
Outline: (§1)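 Bliss excess equals the observed combination effect minus the expected value EA + EB − EA·EB, where EA and EB are the effects of each agent alone. Combination Emax is the second-highest inhibition within the matrix. Inhibition was scaled from CellTiter-Glo 2.0 luminescence, with 0 set by vehicle wells and 1 by blank wells, after 72 hours of two-drug dosing of cells plated in 1536-well plates.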

[2] = system: CaR-1 (Colorectal Carcinoma)
Outline: as §1

[3] = system: EC-GI-10 (Esophageal Squamous Cell Carcinoma)
Outline: as §1

[4] = system: KELLY (Neuroblastoma)
Outline: as §1

[5] = system: KYSE-520 (Esophageal Squamous Cell Carcinoma)
Outline: as §1

[6] = system: LB831-BLC (Bladder Carcinoma)
Outline: as §1

[7] = system: LU-135 (Small Cell Lung Carcinoma)
Outline: as §1

[8] = system: MFE-296 (Endometrial Carcinoma)
Outline: as §1

[9] = system: NB10 (Neuroblastoma)
Outline: as §1

[10] = system: NCI-H82 (Small Cell Lung Carcinoma)
Outline: as §1

[11] = system: NOS-1 (Osteosarcoma)
Outline: as §1

[12] = system: OVCA420 (Ovarian Carcinoma)
Outline: as §1

| Compound | combination Emax [1] | combination Emax [2] | combination Emax [3] | combination Emax [4] | combination Emax [5] | combination Emax [6] | combination Emax [7] | combination Emax [8] | combination Emax [9] | combination Emax [10] | combination Emax [11] | combination Emax [12] |
| --- | --- | --- | --- | --- | --- | --- | --- | --- | --- | --- | --- | --- |
| CN(CCO)CC[C@H](CSc1ccccc1)Nc1ccc(S(=O)(=O)NC(=O)c2ccc(N3CCC([C@@H](O)c4ccccc4-c4ccc(Cl)cc4)CC3)cc2)cc1S(=O)(=O)C(F)(F)F [AZD4320] + C[C@@H]1COCCN1C2=NC(=NC(=C2)C3(CC3)[S@](=N)(=O)C)C4=C5C=CNC5=NC=C4 [AZD6738] (first compound max 1 µM, 7x7, partner max 10 µM) | 0.623 | 0.514 | 0.647 | 0.982 | 0.672 | 0.381 | 1 | 0.559 | 0.689 | 0.932 | 0.914 | 0.516 |
| CN(CCO)CC[C@H](CSc1ccccc1)Nc1ccc(S(=O)(=O)NC(=O)c2ccc(N3CCC([C@@H](O)c4ccccc4-c4ccc(Cl)cc4)CC3)cc2)cc1S(=O)(=O)C(F)(F)F [AZD4320] + C[C@@H](Nc1cc(F)cc(F)c1)c1cc(C(=O)N(C)C)cc2c(=O)cc(N3CCOCC3)oc12 [AZD8186] (first compound max 1 µM, 7x7, partner max 3 µM) | 0.776 | 0.246 | 0.333 | 0.7 | 0.34 | 0.532 | 1 | 0.306 | 0.78 | 0.231 | 0.748 | 0.261 |
| CN(CCO)CC[C@H](CSc1ccccc1)Nc1ccc(S(=O)(=O)NC(=O)c2ccc(N3CCC([C@@H](O)c4ccccc4-c4ccc(Cl)cc4)CC3)cc2)cc1S(=O)(=O)C(F)(F)F [AZD4320] + Cc1cc2ncnn2cc1Nc1ncc2c(n1)n(C1CCOCC1)c(=O)n2C [AZD7648] (first compound max 1 µM, 7x7, partner max 10 µM) | 0.669 | 0.125 | 0.232 | 0.493 | 0.23 | 0.214 | 1 | 0.124 | 0.172 | 0.299 | 0.753 | 0.157 |
| CN(CCO)CC[C@H](CSc1ccccc1)Nc1ccc(S(=O)(=O)NC(=O)c2ccc(N3CCC([C@@H](O)c4ccccc4-c4ccc(Cl)cc4)CC3)cc2)cc1S(=O)(=O)C(F)(F)F [AZD4320] + Cn1cnc2c(F)c(Nc3ccc(Br)cc3Cl)c(C(=O)NOCCO)cc21 [Selumetinib] (first compound max 1 µM, 7x7, partner max 3 µM) | 1 | 0.294 | 0.51 | 0.737 | 0.401 | 0.373 | 1 | 0.396 | 0.887 | 0.265 | 0.69 | 0.451 |
| COc1nnc2ccc(N3CCC(c4ccc(OCCN5CCN(C)C(=O)[C@H]5C)cc4)CC3)nn12 [AZD5153] + C=CCn1c(=O)c2cnc(Nc3ccc(N4CCN(C)CC4)cc3)nc2n1-c1cccc(C(C)(C)O)n1 [AZD1775] (first compound max 1 µM, partner max 1 µM) | 0.79 | 0.451 | 0.865 | 1 | 0.656 | 0.668 | 1 | 0.581 | 0.749 | 0.914 | 0.867 | 0.789 |
| COc1nnc2ccc(N3CCC(c4ccc(OCCN5CCN(C)C(=O)[C@H]5C)cc4)CC3)nn12 [AZD5153] + CC1(C)CCC(CN2CCN(c3ccc(C(=O)NS(=O)(=O)c4ccc(NCC5CCOCC5)c([N+](=O)[O-])c4)c(Oc4cnc5[nH]ccc5c4)c3)CC2)=C(c2ccc(Cl)cc2)C1 [Venetoclax] (first compound max 1 µM, 7x7, partner max 1 µM) | 0.566 | 0.384 | 0.251 | 0.367 | 0.615 | 0.499 | 0.98 | 0.27 | 0.527 | 0.467 | 0.728 | 0.792 |
| COc1nnc2ccc(N3CCC(c4ccc(OCCN5CCN(C)C(=O)[C@H]5C)cc4)CC3)nn12 [AZD5153] + CCN(CCO)CCCOc1ccc2c(Nc3cc(CC(=O)Nc4cccc(F)c4)[nH]n3)ncnc2c1 [AZD2811] (first compound max 1 µM, 7x7, partner max 1 µM) | 0.869 | 0.367 | 0.425 | 0.724 | 0.605 | 0.546 | 1 | 0.333 | 0.571 | 0.481 | 0.765 | 0.773 |
| COc1nnc2ccc(N3CCC(c4ccc(OCCN5CCN(C)C(=O)[C@H]5C)cc4)CC3)nn12 [AZD5153] + C[C@@H]1COCCN1C2=NC(=NC(=C2)C3(CC3)[S@](=N)(=O)C)C4=C5C=CNC5=NC=C4 [AZD6738] (first compound max 1 µM, 7x7, partner max 10 µM) | 0.83 | 0.518 | 0.604 | 0.983 | 0.681 | 0.648 | 1 | 0.74 | 0.903 | 0.878 | 0.887 | 0.807 |
| COc1nnc2ccc(N3CCC(c4ccc(OCCN5CCN(C)C(=O)[C@H]5C)cc4)CC3)nn12 [AZD5153] + Cc1c2c(nn1C)CSCc1cc(n(C)n1)CSc1cc(c3ccccc3c1)OCCCc1c(C(=O)O)n(C)c3c-2c(Cl)ccc13 [AZD5991] (first compound max 1 µM, 7x7, partner max 1 µM) | 0.79 | 0.434 | 0.671 | 0.993 | 0.585 | 0.587 | 0.994 | 0.878 | 0.651 | 0.968 | 1 | 0.771 |
| COc1nnc2ccc(N3CCC(c4ccc(OCCN5CCN(C)C(=O)[C@H]5C)cc4)CC3)nn12 [AZD5153] + Cn1cnc2c(F)c(Nc3ccc(Br)cc3Cl)c(C(=O)NOCCO)cc21 [Selumetinib] (first compound max 1 µM, 7x7, partner max 10 µM) | 1 | 0.619 | 0.526 | 0.645 | 0.691 | 0.494 | 0.948 | 0.356 | 0.785 | 0.378 | 0.894 | 0.819 |
| Cc1c2c(nn1C)CSCc1cc(n(C)n1)CSc1cc(c3ccccc3c1)OCCCc1c(C(=O)O)n(C)c3c-2c(Cl)ccc13 [AZD5991] + C1CN(CCC1(C(=O)N[C@@H](CCO)C2=CC=C(C=C2)Cl)N)C3=NC=NC4=C3C=CN4 [Capivasertib] (first compound max 1 µM, 7x7, partner max 3 µM) | 0.313 | 0.223 | 0.775 | 0.676 | 0.433 | 0.352 | 0.323 | 0.825 | 0.194 | 0.976 | 0.79 | 0.212 |
| Cc1c2c(nn1C)CSCc1cc(n(C)n1)CSc1cc(c3ccccc3c1)OCCCc1c(C(=O)O)n(C)c3c-2c(Cl)ccc13 [AZD5991] + CC1(C)CCC(CN2CCN(c3ccc(C(=O)NS(=O)(=O)c4ccc(NCC5CCOCC5)c([N+](=O)[O-])c4)c(Oc4cnc5[nH]ccc5c4)c3)CC2)=C(c2ccc(Cl)cc2)C1 [Venetoclax] (first compound max 1 µM, 7x7, partner max 1 µM) | 0.135 | 0.144 | 0.448 | 0.999 | 0.183 | 0.439 | 0.478 | 0.593 | 0.481 | 0.914 | 0.889 | 0.187 |
| Cc1c2c(nn1C)CSCc1cc(n(C)n1)CSc1cc(c3ccccc3c1)OCCCc1c(C(=O)O)n(C)c3c-2c(Cl)ccc13 [AZD5991] + CCN(CCO)CCCOc1ccc2c(Nc3cc(CC(=O)Nc4cccc(F)c4)[nH]n3)ncnc2c1 [AZD2811] (first compound max 1 µM, 7x7, partner max 1 µM) | 0.948 | 0.338 | 0.891 | 0.896 | 0.283 | 0.444 | 0.906 | 0.45 | 0.405 | 0.972 | 0.809 | 0.235 |
| Cc1c2c(nn1C)CSCc1cc(n(C)n1)CSc1cc(c3ccccc3c1)OCCCc1c(C(=O)O)n(C)c3c-2c(Cl)ccc13 [AZD5991] + CN(C)CCCOc1ccc(-c2ccc3ncc4c(c3c2)n(C2CCOCC2)c(=O)n4C)cn1 [AZD0156] (first compound max 1 µM, 7x7, partner max 1 µM) | 0.725 | 0.186 | 0.747 | 0.741 | 0.23 | 0.229 | 0.286 | 0.287 | 0.273 | 0.941 | 0.753 | 0.191 |
| Cc1c2c(nn1C)CSCc1cc(n(C)n1)CSc1cc(c3ccccc3c1)OCCCc1c(C(=O)O)n(C)c3c-2c(Cl)ccc13 [AZD5991] + C[C@@H]1COCCN1C2=NC(=NC(=C2)C3(CC3)[S@](=N)(=O)C)C4=C5C=CNC5=NC=C4 [AZD6738] (first compound max 1 µM, 7x7, partner max 10 µM) | 0.511 | 0.362 | 0.819 | 0.991 | 0.583 | 0.439 | 0.736 | 0.791 | 0.86 | 0.99 | 1 | 0.494 |
| Cc1c2c(nn1C)CSCc1cc(n(C)n1)CSc1cc(c3ccccc3c1)OCCCc1c(C(=O)O)n(C)c3c-2c(Cl)ccc13 [AZD5991] + C[C@@H](Nc1cc(F)cc(F)c1)c1cc(C(=O)N(C)C)cc2c(=O)cc(N3CCOCC3)oc12 [AZD8186] (first compound max 1 µM, 7x7, partner max 3 µM) | 0.14 | 0.174 | 0.559 | 0.726 | 0.412 | 0.366 | 0.417 | 0.265 | 0.179 | 0.905 | 0.84 | 0.282 |
| Cc1c2c(nn1C)CSCc1cc(n(C)n1)CSc1cc(c3ccccc3c1)OCCCc1c(C(=O)O)n(C)c3c-2c(Cl)ccc13 [AZD5991] + Cc1cc2ncnn2cc1Nc1ncc2c(n1)n(C1CCOCC1)c(=O)n2C [AZD7648] (first compound max 1 µM, 7x7, partner max 10 µM) | 0.298 | 0.277 | 0.564 | 0.768 | 0.365 | 0.251 | 0.279 | 0.267 | 0.258 | 0.927 | 0.895 | 0.201 |
